{"source": "patent US20070264241A1", "about": "“Compounds for Enhanced Cancer Therapy” (priority 2004, published 2007)", "key": {"[1]": {"test_system": "GFAP and connexin 43 in S6 cells", "test": "Western blot of GFAP and connexin 43 in S6 glioma cells after 4-PB", "type": "cell-based, Rat", "details": "2 mM 4-PB for 2 days", "experimental": "Protein from S6 cells treated with 4-PB for 48 h was extracted and a Western blot analysis was performed. The intensity of the Cx43 specific signal was determined by imager and the activation of Cx43 was calculated. S6 cells not treated with 4-PB acted as reference."}, "[2]": {"test_system": "gap junction communication in primary glioblastoma cells (hGBM-1)", "test": "Fluorescent dye (calcein/Dil) transfer between primary glioblastoma cells", "type": "cell-based, human", "details": "recipient cells 5 mM 4-PB for 48 hours prior to dye transfer", "experimental": "Primary glioblastoma cells were cultured on 35 mm petri dishes and in vitro labelled with 5 μM calcein-AM (acetomethylic ester) and 10 μM Dil (Molecular Probes) diluted in supplemented serum free medium DMEM/F12 and incubated for 30 min at 37° C. The cells were washed once with the same medium, trypsinized and suspended in the culture medium induding 10% FBS. The cells were pelleted by centrifugation at 1600 rpm for 1 minute and resuspended in fresh culture medium. The procedure was repeated twice. Following the second resuspension, the labelled cells were plated on top of unlabelled cells of the same origin. These cells were either pretreated with 4-PB at a concentration of 5 mM, or non-treated for serving as a control. The labeled cells were then allowed to settle for 1 hour, followed by analyses using epifluorescence detection microscopy every 30 minutes for up to 6 hours. GJC (gap-junction communication) were studied using an Olympus BX50WI microscope equipped with UV epifluorescence and red and green attenuating filters."}, "[3]": {"test_system": "GFAP in hGBM-1, hGBM-5 and hGBM-14 cells", "test": "GFAP expression by immunocytochemistry and Western blot in primary glioblastoma cultures", "type": "cell-based, human", "experimental": "Tumour cells cultured on laminin/poly-ornithine coated glass chamber slides were washed in phosphate buffered saline (PBS) and fixed in 4% paraformaldehyde in phosphate buffer for 10 minutes. Cells were washed in PBS three times and incubated with primary antibodies diluted in buffer (0.3% TX-100 (Sigma), albumin fraction V (Sigma), phosphate buffer pH 7.0) over night at 4° C. Secondary antibodies conjugated with FITC or Cy3 (Jackson lmmunoresearch Laboratories) were applied for one hour at room temperature, followed by rinsing with PBS. Antibodies bound were visualized with epifluorescence microscopy using a Leica DMRB microscope, and photographs were taken using a Nikon F50 camera. The following antibodies were used at specified dilutions: monoclonal anti GFAP, 1:500 (DAKO), monodonal anti Cx43 (1:1000, Transduction Laboratories), and FITC (1:80)-conjugated secondary antibodies (Jackson lmmunoresearch Laboratories). Primary glioblastoma cells were grown to 75% confluency and cultured for 48 hours in the presence or absence of 4-PB (2, 5 and 10 mM) and processed as previously described (Asklund et al, Exp cell Res, 2003, 284:183-193). Briefly, cell extracts, containing equal amount of protein (30 μg/lane for Cx43 detection and 60 μg/lane for GFAP detection) were loaded on 10% polyacrylamide gels, separated by SDS-PAGE, and electro-transferred onto nitrocellulose membranes. A rabbit polyclonal antibody to Cx43 diluted 1:8000 (Sigma) or a mouse monoclonal antibody to GFAP diluted 1:1000 (Pharmingen) were applied overnight at […]. The detection step was performed with the enhanced chemiluminescence (ECL) detection kit (Amersham). The membranes were exposed to Hyperfilm-ECL (Amersham) for 1-5 min. For quantification, films were scanned and analysed with Image Gauge (version 3.12, Fuji Photo Film Corp.). Data analysis was performed using the program Sigma Plot for Windows (version 6, Jandel Corp.). All results are expressed as means ± SE for the indicated number of experiments (FIG. 6)."}, "[4]": {"test_system": "U87MG/tomato kinase positive cells", "test": "Synergistic cell killing effect of AZT and 4-PB", "type": "cell-based, human", "details": "72 hours", "experimental": "Medium was replaced by 300 μL of MTT solution (0.5mg/mL; Sigma # M 2128) per well and incubated at 37° C. for 30 minutes. The MTT solution was aspirated and 350 μL of isopropranol was added to dissolve the formazan product by gentle shaking. Three 100 μL aliquots of formazan solution from each well were pipetted into a 96-well microplate. Optical density was measured by Multiscan RMCC/340 plate reader (MicroELISA Reader) at 570 nm with reference at 650 nm. The results were expressed as percentage of live cells compared to control untreated cells (100%). The analyses were run as three independent experiments."}}, "note": "“Also recorded” adds a separate entry of the source."}
{"substance": "4-phenylbutyrate [4-PB]", "values": [{"measurement": "expression of GFAP", "setting": "[1]", "value": "increased expression"}, {"measurement": "expression of connexin 43", "setting": "[1]", "value": "increased expression"}, {"measurement": "intercellular spread of calcein (gap junction dye transfer)", "setting": "[2]", "value": "markedly improved; also recorded: facilitated gap junction dependent calcein transfer substantially"}, {"measurement": "phosphorylated isoform of GFAP (Western blot)", "setting": "[3]; 4-PB 2, 5, 10 mM, 48 hours", "value": "remained stable"}, {"measurement": "GFAP immunostaining intensity (immunocytochemistry)", "setting": "[3]; all three cultures, 5 mM 4-PB for 48 hours", "value": "more intense immunostaining; also recorded: increased"}, {"measurement": "non-phosphorylated isoform of GFAP (Western blot)", "setting": "[3]; hGBM-5 and hGBM-14, 4-PB 2, 5, 10 mM, 48 hours", "value": "upregulated; also recorded: increase"}, {"measurement": "combination effect on cell killing", "setting": "[4]; 15 μM AZT and 0.5 mM 4-PB", "value": "clear additive or synergistic effects"}, {"measurement": "effect of 4-PB on cell killing by AZT", "setting": "[4]; 15 μM AZT, 4-PB 0.5-8 mM", "value": "enhanced the effects of AZT"}]}
